Measured values from patent US9682976B2, “Protein kinase C inhibitors and uses thereof” (Rigel Pharmaceuticals, Inc., priority 2012, dated 2017).

system: PKC mediated IL-2 production; assay: IL-2 ELISA, human primary T cell, anti CD3+CD28+; assay type: cell-based; conditions: Homo sapiens, T-cell, 24 h, human primary T cells stimulated with αCD3 and αCD28, 24 hours
Outline: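 Human peripheral blood T cells, pre-expanded with αCD3/αCD28 and IL-2 and then washed free of IL-2, were pre-incubated with compound for 1 h at 37° C. They were then stimulated on plates coated with […] αCD3 and 5 μg/ml αCD28, or with 0.5 ng/ml PMA plus 0.1 uM ionomycin in the counter assay. IL-2 in supernatants was measured by ELISA after 24 h.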

| EC50 | Structure (SMILES) |
| --- | --- |
| 100 to 500 nM | CC1(C)C[C@H](Nc2nc(Nc3cc(C#N)c(C4CC4)cc3F)ncc2Cl)C[C@@H]2CCCN21 [Compound 181, 5-((5-chloro-4-(((7R,8aS)-5,5-dimethyloctahydroindolizin-7-yl)amino)pyrimidin-2-yl)amino)-2-cyclopropyl-4-fluorobenzonitrile] |
| < 100 nM | CC1(C)C[C@H](Nc2nc(Nc3ccc(Cl)c(-n4nnnc4C4CC4)c3)ncc2Cl)C[C@@H]2CCCN21 [Compound 182, 5-chloro-N2-(4-chloro-3-(5-cyclopropyl-1H-tetrazol-1-yl)phenyl)-N4-((7R,8aS)-5,5-dimethyloctahydroindolizin-7-yl)pyrimidine-2,4-diamine] |
| 1000 to 10000 nM | COc1cc(Nc2ncc(Cl)c(N[C@@H]3C[C@@H]4CCCN4C(C)(C)C3)n2)cc(OC)c1OC [Compound 183, 5-chloro-N4-((7R,8aS)-5,5-dimethyloctahydroindolizin-7-yl)-N2-(3,4,5-trimethoxyphenyl)pyrimidine-2,4-diamine] |
| 100 to 500 nM | CCOC(=O)C(C)Oc1cc(F)c(Nc2ncc(F)c(N[C@@H]3C[C@@H]4CCCN4C(C)(C)C3)n2)cc1-n1nnn(C)c1=O (stereo partly drawn) [Compound 184, ethyl 2-(4-((4-(((7R,8aS)-5,5-dimethyloctahydroindolizin-7-yl)amino)-5-fluoropyrimidin-2-yl)amino)-5-fluoro-2-(4-methyl-5-oxo-4,5-dihydro-1H-tetrazol-1-yl)phenoxy)propanoate] |
| > 10000 nM | Cn1nnn(-c2cc(Nc3ncc(F)c(N[C@@H]4C[C@@H]5CCCN5C(C)(C)C4)n3)c(F)cc2OC2CCOC2=O)c1=O (stereo partly drawn) [Compound 185, 1-(5-((4-(((7R,8aS)-5,5-dimethyloctahydroindolizin-7-yl)amino)-5-fluoropyrimidin-2-yl)amino)-4-fluoro-2-((2-oxotetrahydrofuran-3-yl)oxy)phenyl)-4-methyl-1,4-dihydro-5H-tetrazol-5-one] |
| 500 to 1000 nM | Cn1nnn(-c2cc(Nc3ncc(F)c(N[C@@H]4C[C@@H]5CCCN5C(C)(C)C4)n3)c(F)cc2OC[C@H](O)CO)c1=O [Compound 188, 1-(2-((R)-2,3-dihydroxypropoxy)-5-((4-(((7R,8aS)-5,5-dimethyloctahydroindolizin-7-yl)amino)-5-fluoropyrimidin-2-yl)amino)-4-fluorophenyl)-4-methyl-1,4-dihydro-5H-tetrazol-5-one] |
| 100 to 500 nM | CC1(C)C[C@H](Nc2nc(Nc3ccc(OCCO)c(C#N)c3)ncc2F)C[C@@H]2CCCN21 [Compound 189, 5-((4-(((7R,8aS)-5,5-dimethyloctahydroindolizin-7-yl)amino)-5-fluoropyrimidin-2-yl)amino)-2-(2-hydroxyethoxy)benzonitrile] |
| 100 to 500 nM | COCCOCCOc1ccc(Nc2ncc(F)c(N[C@@H]3C[C@@H]4CCCN4C(C)(C)C3)n2)cc1C#N [Compound 190, 5-((4-(((7R,8aS)-5,5-dimethyloctahydroindolizin-7-yl)amino)-5-fluoropyrimidin-2-yl)amino)-2-(2-(2-methoxyethoxy)ethoxy)benzonitrile] |
| 1000 to 10000 nM | CC(=O)O[C@H]1[C@H](OC(C)=O)C(Oc2cc(F)c(Nc3ncc(F)c(N[C@@H]4C[C@@H]5CCCN5C(C)(C)C4)n3)cc2-n2nnn(C)c2=O)OC[C@H]1OC(C)=O (stereo partly drawn) [Compound 191, (3S,4R,5R)-2-(4-((4-(((7R,8aS)-5,5-dimethyloctahydroindolizin-7-yl)amino)-5-fluoropyrimidin-2-yl)amino)-5-fluoro-2-(4-methyl-5-oxo-4,5-dihydro-1H-tetrazol-1-yl)phenoxy)tetrahydro-2H-pyran-3,4,5-triyl triacetate] |
| 100 to 500 nM | CN(C)CCOc1cc(F)c(Nc2ncc(F)c(N[C@@H]3C[C@@H]4CCCN4C(C)(C)C3)n2)cc1-n1nnn(C)c1=O [Compound 192, 1-(2-(2-(dimethylamino)ethoxy)-5-((4-(((7R,8aS)-5,5-dimethyloctahydroindolizin-7-yl)amino)-5-fluoropyrimidin-2-yl)amino)-4-fluorophenyl)-4-methyl-1,4-dihydro-5H-tetrazol-5-one] |
| 100 to 500 nM | CN(C)CCOc1cc(F)c(N(CCN(C)C)c2ncc(F)c(N[C@@H]3C[C@@H]4CCCN4C(C)(C)C3)n2)cc1-n1nnn(C)c1=O [Compound 193, 1-(2-(2-(dimethylamino)ethoxy)-5-((2-(dimethylamino)ethyl)(4-(((7R,8aS)-5,5-dimethyloctahydroindolizin-7-yl)amino)-5-fluoropyrimidin-2-yl)amino)-4-fluorophenyl)-4-methyl-1,4-dihydro-5H-tetrazol-5-one] |

The next lines start with the compound.

| Structure (SMILES) | EC50 |
| --- | --- |
| Cn1nnn(-c2cc(Nc3ncc(F)c(N[C@@H]4C[C@@H]5CCCN5C(C)(C)C4)n3)c(F)cc2OCC2COC2)c1=O [Compound 166, 1-(5-((4-(((7R,8aS)-5,5-dimethyloctahydroindolizin-7-yl)amino)-5-fluoropyrimidin-2-yl)amino)-4-fluoro-2-(oxetan-3-ylmethoxy)phenyl)-4-methyl-1,4-dihydro-5H-tetrazol-5-one] | 100 to 500 nM |
| Cn1nnn(-c2cc(Nc3ncc(F)c(N[C@@H]4C[C@@H]5CCCN5C(C)(C)C4)n3)c(F)cc2OCC2CCO2)c1=O (stereo partly drawn) [Compound 167, 1-(5-((4-(((7R,8aS)-5,5-dimethyloctahydroindolizin-7-yl)amino)-5-fluoropyrimidin-2-yl)amino)-4-fluoro-2-(oxetan-2-ylmethoxy)phenyl)-4-methyl-1,4-dihydro-5H-tetrazol-5-one] | 100 to 500 nM |
| CC1(C)C[C@H](Nc2nc(Nc3ccc(O)c(C#N)c3)ncc2F)C[C@@H]2CCCN21 [Compound 168, 5-((4-(((7R,8aS)-5,5-dimethyloctahydroindolizin-7-yl)amino)-5-fluoropyrimidin-2-yl)amino)-2-hydroxybenzonitrile] | 1000 to 10000 nM |
| Cn1nnn(-c2cc(Nc3ncc(F)c(N[C@@H]4C[C@@H]5CCCN5C(C)(C)C4)n3)c(F)cc2OCC2COCCO2)c1=O (stereo partly drawn) [Compound 169, 1-(2-((1,4-dioxan-2-yl)methoxy)-5-((4-(((7R,8aS)-5,5-dimethyloctahydroindolizin-7-yl)amino)-5-fluoropyrimidin-2-yl)amino)-4-fluorophenyl)-4-methyl-1,4-dihydro-5H-tetrazol-5-one] | 1000 to 10000 nM |
| Cn1nnn(-c2cc(Nc3ncc(F)c(N[C@@H]4C[C@@H]5CCCN5C(C)(C)C4)n3)c(F)cc2OCC2CCOCC2)c1=O [Compound 170, 1-(5-((4-(((7R,8aS)-5,5-dimethyloctahydroindolizin-7-yl)amino)-5-fluoropyrimidin-2-yl)amino)-4-fluoro-2-((tetrahydro-2H-pyran-4-yl)methoxy)phenyl)-4-methyl-1,4-dihydro-5H-tetrazol-5-one] | 100 to 500 nM |
| Cn1nnn(-c2cc(Nc3ncc(F)c(N[C@@H]4C[C@@H]5CCCN5C(C)(C)C4)n3)c(F)cc2OCC(=O)C(=O)O)c1=O [Compound 171, 3-(4-((4-(((7R,8aS)-5,5-dimethyloctahydroindolizin-7-yl)amino)-5-fluoropyrimidin-2-yl)amino)-5-fluoro-2-(4-methyl-5-oxo-4,5-dihydro-1H-tetrazol-1-yl)phenoxy)-2-oxopropanoic acid] | > 10000 nM |
| COCCOc1ccc(Nc2ncc(F)c(N[C@@H]3C[C@@H]4CCCN4C(C)(C)C3)n2)cc1C#N [Compound 172, 5-((4-(((7R,8aS)-5,5-dimethyloctahydroindolizin-7-yl)amino)-5-fluoropyrimidin-2-yl)amino)-2-(2-methoxyethoxy)benzonitrile] | 100 to 500 nM |
| CC1(COc2ccc(Nc3ncc(F)c(N[C@@H]4C[C@@H]5CCCN5C(C)(C)C4)n3)cc2C#N)COC1 [Compound 173, 5-(4-((7R,8aS)-5,5-dimethyloctahydroindolizin-7-ylamino)-5-fluoropyrimidin-2-ylamino)-2-((3-methyloxetan-3-yl)methoxy)benzonitrile] | 100 to 500 nM |
| CC1(C)C[C@H](Nc2nc(Nc3ccc(OCC4(CO)COC4)c(C#N)c3)ncc2F)C[C@@H]2CCCN21 [Compound 174, 5-(4-((7R,8aS)-5,5-dimethyloctahydroindolizin-7-ylamino)-5-fluoropyrimidin-2-ylamino)-2-((3-(hydroxymethyl)oxetan-3-yl)methoxy)benzonitrile] | 500 to 1000 nM |
| CC1(C)C[C@H](Nc2nc(Nc3ccc(OCC4COC4)c(C#N)c3)ncc2F)C[C@@H]2CCCN21 [Compound 175, 5-(4-((7R,8aS)-5,5-dimethyloctahydroindolizin-7-ylamino)-5-fluoropyrimidin-2-ylamino)-2-(oxetan-3-ylmethoxy)benzonitrile] | 500 to 1000 nM |
| CC1(C)C[C@H](Nc2nc(Nc3ccc(OCC4CCO4)c(C#N)c3)ncc2F)C[C@@H]2CCCN21 (stereo partly drawn) [Compound 176, 5-(4-((7R,8aS)-5,5-dimethyloctahydroindolizin-7-ylamino)-5-fluoropyrimidin-2-ylamino)-2-(oxetan-2-ylmethoxy)benzonitrile] | 100 to 500 nM |
| CC1(C)C[C@H](Nc2nc(Nc3ccc(OCC4COCCO4)c(C#N)c3)ncc2F)C[C@@H]2CCCN21 (stereo partly drawn) [Compound 177, 2-((1,4-dioxan-2-yl)methoxy)-5-(4-((7R,8aS)-5,5-dimethyloctahydroindolizin-7-ylamino)-5-fluoropyrimidin-2-ylamino)benzonitrile] | 100 to 500 nM |
| CC1(C)C[C@H](Nc2nc(Nc3ccc(OCC4CCOCC4)c(C#N)c3)ncc2F)C[C@@H]2CCCN21 [Compound 178, 5-(4-((7R,8aS)-5,5-dimethyloctahydroindolizin-7-ylamino)-5-fluoropyrimidin-2-ylamino)-2-((tetrahydro-2H-pyran-4-yl)methoxy)benzonitrile] | 100 to 500 nM |
| CC1(C)C[C@H](Nc2nc(Nc3ccc(OC4COC4)c(C#N)c3)ncc2F)C[C@@H]2CCCN21 [Compound 179, 5-(4-((7R,8aS)-5,5-dimethyloctahydroindolizin-7-ylamino)-5-fluoropyrimidin-2-ylamino)-2-(oxetan-3-yloxy)benzonitrile] | 100 to 500 nM |
| CC1(C)C[C@H](Nc2nc(Nc3ccc(Br)c(C#N)c3)ncc2F)C[C@@H]2CCCN21 [Compound 180, 2-bromo-5-((4-(((7R,8aS)-5,5-dimethyloctahydroindolizin-7-yl)amino)-5-fluoropyrimidin-2-yl)amino)benzonitrile] | 100 to 500 nM |
